# Experimental data as given in PubChem BioAssay (NCI).
#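 GI50: concentration for 50% inhibition of growth. TGI denotes the concentration required for complete inhibition of growth.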
# Key:
# Assay in all cases: NCI anticancer screen, dose series, 384-well format
# [1] = test system: OVCAR-8 ovarian
# [2] = test system: SNB-75 CNS
# [3] = test system: PC-3 prostate
# [4] = test system: IGROV1 ovarian
# [5] = test system: UACC-257 melanoma
# [6] = test system: UACC-62 melanoma
# [7] = test system: HOP-62 NSCLC
# [8] = test system: SK-MEL-28 melanoma
# [9] = test system: SW-620 colon
# [10] = test system: SNB-19 CNS
# [11] = test system: SF-295 CNS
# [12] = test system: NCI-H23 lung
# [13] = test system: HCC-2998 colon
# [14] = test system: SF-539 CNS
# [15] = test system: 786-0 renal
# [16] = test system: OVCAR-4 ovarian
# [17] = test system: HCT-116 colon
# [18] = test system: MCF7 breast
# [19] = test system: OVCAR-5 ovarian
# [20] = test system: HOP-92 NSCLC
# [21] = test system: NCI/ADR-RES ovarian
# [22] = test system: NCI-H522 lung
# [23] = test system: MALME-3M melanoma
# [24] = test system: HS 578T breast
# [25] = test system: EKVX NSCLC
# [26] = test system: BT-549 breast
# [27] = test system: SN12C renal
# [28] = test system: MOLT-4 leukemia
# [29] = test system: TK-10 renal
# [30] = test system: SK-MEL-5 melanoma
# [31] = test system: MDA-MB-435 melanoma
# [32] = test system: HCT-15 colon
# [33] = test system: NCI-H226 lung
# [34] = test system: MDA-MB-231 breast
# [35] = test system: SF-268 CNS
# [36] = test system: U251 glioblastoma
# [37] = test system: CAKI-1 renal
# [38] = test system: UO-31 renal
# [39] = test system: A498 renal
# [40] = test system: M14 melanoma
# [41] = test system: COLO 205 colon
# [42] = test system: RPMI-8226 leukemia
# [43] = test system: OVCAR-3 ovarian
# [44] = test system: K-562 leukemia
# [45] = test system: CCRF-CEM leukemia
# [46] = test system: DU-145 prostate
# [47] = test system: MDA-MB-468 breast
# [48] = test system: NCI-H322M lung
# [49] = test system: LOX IMVI melanoma
# [50] = test system: A549 NSCLC
# [51] = test system: NCI-H460 NSCLC
# [52] = test system: HL-60(TB) leukemia
# [53] = test system: RXF 393 renal
# [54] = test system: SK-OV-3 ovarian
# [55] = test system: ACHN renal
smiles,measurement,setting,value
N#CCCNc1nonc1-c1nc2ccccc2n1CC(=O)c1ccc(NC(=O)[C@@H](N)CCCCN)cc1,GI50,[1],32 nM
same,TGI,[1],117 nM
same,GI50,[2],38.7 nM
same,TGI,[2],66600 nM
same,GI50,[3],38.9 nM
same,TGI,[3],948 nM
same,GI50,[4],43.5 nM
same,TGI,[4],> 100000 nM
same,GI50,[5],59.1 nM
same,TGI,[5],22600 nM
same,GI50,[6],31 nM
same,TGI,[6],344 nM
same,GI50,[7],38.8 nM
same,TGI,[7],1020 nM
same,GI50,[8],78.1 nM
same,TGI,[8],46300 nM
same,GI50,[9],42.4 nM
same,TGI,[9],88400 nM
same,GI50,[10],37 nM
same,TGI,[10],> 100000 nM
same,GI50,[11],26.3 nM
same,TGI,[11],71.4 nM
same,GI50,[12],21.8 nM
same,TGI,[12],52.6 nM
same,GI50,[13],24.9 nM
same,TGI,[13],74.1 nM
same,GI50,[14],20 nM
same,TGI,[14],45.7 nM
same,GI50,[15],36.3 nM
same,TGI,[15],422 nM
same,GI50,[16],86.1 nM
same,TGI,[16],66300 nM
same,GI50,[17],33.3 nM
same,TGI,[17],192 nM
same,GI50,[18],39.4 nM
same,TGI,[18],3270 nM
same,GI50,[19],120 nM
same,TGI,[19],> 100000 nM
same,GI50,[20],51.5 nM
same,TGI,[20],884 nM
same,GI50,[21],18.2 nM
same,TGI,[21],35.1 nM
same,GI50,[22],17.7 nM
same,TGI,[22],37 nM
same,GI50,[23],34.8 nM
same,TGI,[23],163 nM
same,GI50,[24],17.4 nM
same,TGI,[24],36.9 nM
same,GI50,[25],54.5 nM
same,TGI,[25],> 100000 nM
same,GI50,[26],22.2 nM
same,TGI,[26],54 nM
same,GI50,[27],45.2 nM
same,TGI,[27],2170 nM
same,GI50,[28],16.8 nM
same,TGI,[28],31.1 nM
same,GI50,[29],83.4 nM
same,TGI,[29],93000 nM
same,GI50,[30],20.9 nM
same,TGI,[30],57.1 nM
same,GI50,[31],19.4 nM
same,TGI,[31],38.3 nM
same,GI50,[32],30 nM
same,TGI,[32],103 nM
same,GI50,[33],90.3 nM
same,TGI,[33],41900 nM
same,GI50,[34],135 nM
same,TGI,[34],78600 nM
same,GI50,[35],13.6 nM
same,TGI,[35],47.4 nM
same,GI50,[36],32.8 nM
same,TGI,[36],148 nM
same,GI50,[37],41.1 nM
same,TGI,[37],> 100000 nM
same,GI50,[38],60.1 nM
same,TGI,[38],11300 nM
same,GI50,[39],30.6 nM
same,TGI,[39],> 100000 nM
same,GI50,[40],19.9 nM
same,TGI,[40],46.5 nM
same,GI50,[41],27.8 nM
same,TGI,[41],78.3 nM
same,GI50,[42],19.2 nM
same,TGI,[42],35.4 nM
same,GI50,[43],19.9 nM
same,TGI,[43],45.7 nM
same,GI50,[44],18.7 nM
same,TGI,[44],38.8 nM
same,GI50,[45],18.3 nM
same,TGI,[45],33.1 nM
same,GI50,[46],37.5 nM
same,TGI,[46],640 nM
same,GI50,[47],19.9 nM
same,TGI,[47],46.1 nM
same,GI50,[48],73 nM
same,TGI,[48],> 100000 nM
same,GI50,[49],46 nM
same,TGI,[49],407 nM
same,GI50,[50],36.9 nM
same,TGI,[50],> 100000 nM
same,GI50,[51],22.1 nM
same,TGI,[51],47.3 nM
same,GI50,[52],20.7 nM
same,TGI,[52],35.8 nM
same,GI50,[53],20.8 nM
same,TGI,[53],53 nM
same,GI50,[54],39.9 nM
same,TGI,[54],16200 nM
same,GI50,[55],63.6 nM
same,TGI,[55],> 100000 nM
